The record followed here is PMC7093416, “Selective USP7 inhibition elicits cancer cell killing through a p53-dependent mechanism” (Scientific Reports, 2020).

The target in this assay is T1, ANXA5 (Homo sapiens, UniProt P08758).
T1 construct: endogenous in cells; host or cells: HEK 293AD lysate
T1 sequence (P08758 1-320): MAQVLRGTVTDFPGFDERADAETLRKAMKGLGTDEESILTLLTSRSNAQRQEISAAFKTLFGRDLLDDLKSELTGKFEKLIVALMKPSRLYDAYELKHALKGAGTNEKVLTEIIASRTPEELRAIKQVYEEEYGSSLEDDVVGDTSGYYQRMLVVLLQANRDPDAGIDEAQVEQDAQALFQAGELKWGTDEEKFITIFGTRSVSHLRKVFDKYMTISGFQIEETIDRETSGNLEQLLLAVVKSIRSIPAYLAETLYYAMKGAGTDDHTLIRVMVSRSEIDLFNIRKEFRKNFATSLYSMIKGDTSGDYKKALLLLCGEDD
As to the kind of experiment: XL177A-DTB chemoproteomic profiling with XL177A competition, ANXA5. It counts as binding. Conditions: ANXA5 reporter ion intensity. On the procedure:
HEK 293AD cells were lysed as described above, and the lysate was cleared by centrifugation. Samples were diluted to 10 mg/mL, and 200 μL lysate (2 mg protein total) was incubated with the indicated concentrations of XL177A for 4 hours at RT, then 2 μM of WH114A for 4 additional hours. SDS was added to a final concentration of 1.2% (27.2 μL of a 10% stock), and denatured by heating to 80 °C for 5 minutes. After cooling to RT, 1125 μL 1X PBS was added to dilute the final SDS concentration to 0.2%. 50 μL streptavidin agarose slurry was added to each sample, followed by incubation at RT for 3 hours. After streptavidin enrichment, samples were washed vigorously (2×0.2% SDS, 3x PBS, 3x ddH2O). After the final wash, all supernatant was removed using a flat-bottom tip, and the resin was flash frozen and stored at −80 °C until workup for TMT labeling.
To remove rapigest, recovered supernatants were acidified with 10% TFA, incubated at 37 °C for 45 minutes, and centrifuged at 14,000 rpm for 15 minutes at 4 °C. Peptides were then desalted by C18, and dried by vacuum centrifugation. Dried peptides were reconstituted in 50 mM pH8.0 TEAB and labeled with TMT reagent at RT for 1 hour. TMT reactions were pooled and treated with hydroxylamine according to the manufacturer’s instructions. Peptide mixtures were then dried, reconstituted in 50 mM ammonium bicarbonate and desalted by SP3[53]. Eluted peptides were then analyzed by nanoflow LC-MS/MS as described[64] with a NanoAcquity UPLC system (Waters, Milford, MA) interfaced to a QExactive HF mass spectrometer (Thermofisher Scientific, San Jose, CA). TMT labeled peptides were injected onto a precolumn (4 cm POROS 10R2, Applied Biosystems, Framingham, MA), resolved on an analytical column (30 µm I.D. × 50 cm packed with 5 µm Monitor C18) and introduced to the mass spectrometer by ESI (spray voltage = 3.5 kV, flow rate ~30 nL/min). The mass spectrometer was operated in data dependent mode such that the 15 most abundant ions in each MS scan (m/z 300–2000, 120 K resolution, target = 3E6, lock mass for 445.120025 enabled) were subjected to MS/MS (m/z 100–2000, 30 K resolution, target = 1E5, max fill time = 100 ms). Dynamic exclusion was selected with a repeat count of 1 and an exclusion time of 30 seconds. MS/MS data was extracted to.mgf using mulitplierz scripts[54],[55] and searched against a forward-reverse human NCBI refseq database using Mascot version 2.6. Search parameters specified fixed carbamidomethylation of cysteine, fixed N-terminal and lysine TMT labelling, and variable oxidation (methionine). Additional multiplierz scripts were used to filter results to 1% FDR and derive protein-level aggregate reporter ion intensities using peptides mapping uniquely into the genome.

The mark [1] stands for this setting: XL177A-DTB pulldown, HEK293AD lysate pre-treated 100nM XL177A.
Where [2] appears, read: XL177A-DTB pulldown, HEK293AD lysate pre-treated 1uM XL177A.
[3] abbreviates: XL177A-DTB pulldown, HEK293AD lysate pre-treated 10uM XL177A.
The mark [4] stands for this setting: average of Run 1 and Run 2, 100nM XL177A.
Where [5] appears, read: average of Run 1 and Run 2, 1uM XL177A.
The mark [6] stands for this setting: average of Run 1 and Run 2, 10uM XL177A.

As for `CN1CCN(CCC(=O)Nc2ccc3c(=O)n(CC4(O)CCN(C(=O)[C@@H](CCCNC(=O)c5ccc6c(Cl)c7c(nc6c5)CCCC7)Cc5ccccc5)CC4)cnc3c2)CC1` [XL177A], under setting [1], the “Run 1 100nM 1” value is listed as 178152, the “Run 1 100nM 2” value stood at 165955, the “Run 1 100nM 3” value is given as 128000 and the “Run 2 100nM 1” value came to 93111. Moreover, under setting [1], the “Run 2 100nM 2” value is reported as 89444 and the “Run 2 100nM 3” value is given as 79751. Moreover, under setting [2], the “Run 1 1uM 1” value was 144604, the “Run 1 1uM 2” value came to 674321, the “Run 1 1uM 3” value was 223998 and the “Run 2 1uM 1” value turned out to be 92176. Under setting [2], the “Run 2 1uM 2” value turned out to be 333280 and the “Run 2 1uM 3” value is on record as 123099. Under setting [3], the “Run 1 10uM 1” value was determined as 147137, the “Run 1 10uM 2” value is listed as 166473, the “Run 2 10uM 1” value is recorded as 88314 and the “Run 2 10uM 2” value amounted to 102591. Moreover, under setting [4], the “AVE 100nM 1” value is 135632, the “AVE 100nM 2” value was 127700 and the “AVE 100nM 3” value is reported as 103876. Under setting [5], the “AVE 1uM 1” value is given as 118390, the “AVE 1uM 2” value is 503800 and the “AVE 1uM 3” value is 173548. Also, under setting [6], the “AVE 10uM 1” value stood at 117726 and the “AVE 10uM 2” value was found to be 134532.
